From patent US20160128988A1, “COMBINATIONS FOR THE TREATMENT OF CANCER COMPRISING A MPS-1 KINASE INHIBITOR AND A MITOTIC INHIBITOR” (BAYER PHARMA AKTIENGESELLSCHAFT, priority 2013, published 2016)
Like-named read-outs stand apart in the source and are kept apart here. Marks after values point to notes of the source that are not given here.

Tests used:
[1] = tested on: human glioblastoma model U87 MG; assay: Combination with vincristine in human glioblastoma model U87 MG (intracerebral); type: in vivo, nude mice
Description: The study was designed to determine the response of this glioblastoma model to the treatment with the investigational Compound A1 and vincristine, both alone at a fixed dose, and vincristine in combination with two different doses, both lower than that of Compound A1 used in the monotherapy schedule. The size of the glioblastoma was used as read out parameter for response.
The cell culture derived human xenograft U87 MG was initiated by transplantation of the tumor cells into the left hemisphere of the mouse brain. Treatment was done in three cycles between day 3 and day 19. Mice were sacrificed at day 24, the brain isolated and shock frozen in 2 methyl-butane. Tumor size were determined as measure for tumor growth inhibition from cryo-slizes after staining.

[2] = tested on: NCI-H1299 human NSCLC xenograft tumors; settings: Compound A1 0.45 mg/kg 2QD 2on/5off p.o., paclitaxel 20 mg/kg QD 1on/6off i.v.; for T/C area: relative mean tumor area, 28 treatment days
Description: The effect of combination treatment of an Mps-1 inhibitor and paclitaxel was studied in the NCI-H1299 taxane intrinsically resistant human lung carcinoma (NSCLC) xenograft model in nude mice.
(§1) Paclitaxel was applied intravenously once per week upon its respective MTD. Substances were formulated in optimal vehicles to achieve solutions. Animal body weight and tumor size were determined two to three times weekly. […] For combination treatment, the Compound A1 and paclitaxel were applied at the same day within a time frame of 4 hours. Animals of control and monotherapy group (Compound A1 only) were treated for a duration of 28 days. Animals of paclitaxel monotherapy and paclitaxel/Mps-1 inhibitor treatment groups were treated for a duration of 37 days. At the end of the study after one final treatment plasma and tumors were sampled for PK analysis and final tumor weight was determined.
(§2) FIGS. 1A and 1B show the response of NCI-H1299 human NSCLC xenograft tumors to treatment with Compound A1 in combination with paclitaxel. NCI-H1299 human NSCLC tumor cells were implanted s.c. into nude mice on day 0. […] Compound A1 was administered orally (p.o.) upon 0.45 mg/kg twice daily (2QD) for 2 days on/5 days off (2 on/5 off) in monotherapy and in combination with paclitaxel. Paclitaxel was administered intravenously (i.v.) upon 20 mg/kg once daily (QD) once per week (1 on/6 off) in monotherapy and combination therapy. Tumor growth was monitored by determination of the tumor area using calliper measurement two to three times weekly. FIG. 1A: Time course of tumor growth. FIG. 1B: Time course of animal body weight change during the course of the study.

[3] = tested on: IGR-OV1 human ovarian carcinoma model
Description: Paclitaxel was administered IV QW at 50% of its respective MTD.

[4] = tested on: MKN1 human gastric carcinoma model; assay: Combination with paclitaxel in MKN1 human gastric carcinoma model
Description: (§3) Compound A1 was administered PO in the 2QD intermittent (2 days on/5 days off) dosing schedule up to the respective MTD in single-agent treatment and at a dose of 40% of the single-agent MTD in combination. Paclitaxel was administered IV QW at its respective MTD. Treatment for all groups started at a tumor size of 27 mm^2, on day 7 after tumor cell inoculation. For combination treatment, Compound A1 and paclitaxel were administered on the same day within a time of 4 hours. Animals of the control and Compound A1 single-agent treatment groups were treated for 40 days. Animals of the paclitaxel single-agent and Compound A1 with paclitaxel combination treatment groups were treated for 78 days.

[5] = tested on: MDA-MB 231 human triple-negative breast cancer xenograft tumors; settings: Compound A1 1 mg/kg 2QD 2on/5off p.o., paclitaxel 20 mg/kg QD 1on/6off i.v.; for T/C area: relative mean tumor area, 28 treatment days
Description: The effect of combination treatment of an Mps-1 kinase inhibitor (Compound A1) and paclitaxel was studied in the MDA-MB 231 human triple-negative (no expression of Her2/neu, progesterone receptor, estrogen receptor) xenograft model in nude mice.
as §1, with “determined” for “determined two to”, “treatment,” for “treatment, the”, “paclitaxel/Mps-1 kinase” for “paclitaxel/Mps-1”, “50” for “37”
as §2, with “MDA-MB 231” for “FIGS. 1A and 1B show the response of NCI-H1299”, “breast cancer” for “NSCLC xenograft tumors to treatment with Compound A1 in combination with paclitaxel. NCI-H1299 human NSCLC tumor”, “1” for “0.45”, “measurement” for “measurement two to”, “3A:” for “1A:”, “3B: Weight of tumors in paclitaxel/Mps-1 kinase inhibitor combination group at the end of the study at day 73 after tumor cell inoculation. FIG. 3C:” for “1B:”

[6] = Maximum tolerated dose (MTD); type: in vivo, nude mice
[7] = tested on: A2780cis xenograft model
Description: The effect of the combination treatment of Compound A1 with paclitaxel was studied in a human ovarian carcinoma model in nude mice, namely in the adaptive cisplatin-resistant and paclitaxel intrinsically-resistant A2780cis xenograft model. […] Paclitaxel was administered IV QW at its respective MTD.

[8] = tested on: cisplatin-resistant ovarian cancer cells A2780cis; assay: Mode of action: histopathology of A2780cis tumors after treatment
Description: To explain in vivo the mode of action of an Mps-1 kinase inhibitor in single-agent treatment and combination treatment with a taxane, female NMRI (Naval Medical Research Institute) nude mice were implanted with cisplatin-resistant ovarian cancer cells A2780cis.
Paclitaxel was administered IV (intravenous(ly)) QW (once per week (meaning the 1 day on/6 days off treatment schedule)) at its MTD (24 mg/kg) in single-agent and combination treatments. […] Tumors were embedded in paraffin, sections were prepared and stained with hematoxylin & eosin for histopathological analysis.

[9] = tested on: primary human NSCLC xenograft model LU387; assay: Combination with paclitaxel in primary human NSCLC xenograft model LU387; type: in vivo, nude mice; settings: day 42; paclitaxel 20 mg/kg IV QW for 6 weeks, alone or in combination with Compound A1
Description: The effect of Compound A1 and paclitaxel compared with a vehicle was evaluated in the subcutaneous primary human NSCLC xenograft model LU387 on nude mice.

[10] = tested on: MKN1 human gastric carcinoma model; settings: mouse, in vivo
Description: as §3

[11] = tested on: NCI-H1299 human NSCLC xenograft tumors; settings: Compound A1 2 mg/kg 2QD 2on/5off p.o., docetaxel 15 mg/kg QD 1on/6off i.v.; for T/C area: relative mean tumor area, 20 treatment days
Excerpt: The effect of combination treatment of an Mps-1 kinase inhibitor (Compound A1) with docetaxel, another SAC activating, […], anti-mitotic agent, used as standard of care in NSCLC patients, was studied in the NCI-H1299 taxane intrinsically resistant human lung carcinoma (NSCLC) xenograft model in nude mice.
Docetaxel was applied intravenously once per week upon its respective MTD. Substances were formulated in optimal vehicles to achieve solutions. Animal body weight and tumor size were determined two times weekly. […] For combination treatment Compound A1and docetaxel were applied at the same day within a time frame of 4 hours. Animals of control and Mps-1 kinase inhibitor monotherapy group were treated for a duration of 20 days. Animals of docetaxel monotherapy and docetaxel/Mps-1 kinase inhibitor combination treatment groups were treated for a duration of 42 days. At the end of the study after one final treatment plasma and tumors were sampled for PK analysis and final tumor weight was determined.
as §2, with “NCI-H1299” for “FIGS. 1A and 1B show the response of NCI-H1299 human NSCLC xenograft tumors to treatment with Compound A1 in combination with paclitaxel. NCI-H1299”, “2.0” for “0.45”, “docetaxel. Docetaxel” for “paclitaxel. Paclitaxel”, “15” for “20”, “2A:” for “1A:”, “2B: Weight of tumors in docetaxel/Mps-1 kinase inhibitor combination group at the end of the study at day 52 after tumor cell inoculation. FIG. 2C:” for “1B:”

[12] = day 24, single agents: Gr. B Compound A1 2.5 mg/kg p.o., Gr. C Vincristine 0.75 mg/kg i.p.
[13] = after 78 treatment days, paclitaxel 24 mg/kg IV QW

CC[C@]1(O)C[C@H]2CN(CCc3c([nH]c4ccccc34)[C@@](C(=O)OC)(c3cc4c(cc3OC)N(C=O)[C@H]3[C@@](O)(C(=O)OC)[C@H](OC(C)=O)[C@]5(CC)C=CCN6CC[C@]43[C@@H]65)C2)C1 [Vincristine, vincristine, reference compound]
inhibition of tumor growth ([1]; Gr. C vincristine alone, Gr. D combination of high dose Compound A1 and vincristine): 38.6% | Brain tumor inside [mm^2] ([1]; day 24, single agents: Gr. B Compound A1 2.5 mg/kg p.o. BIDx2x3, Gr. C Vincristine 0.75 mg/kg i.p. 1xqWx3): 10.69 +/− 6.71 mm^2 | Brain tumor outside [mm^2] [1, 12]: 4.50 +/− 1.66 mm^2 | Brain tumor total [mm^2] [1, 12]: 13.26 +/− 7.25 mm^2 | T/C (inside T) [%] [1, 12]: 61.4%

CC(=O)O[C@H]1C(=O)[C@@]2(C)[C@H]([C@H](OC(=O)c3ccccc3)[C@]3(O)C[C@H](OC(=O)[C@H](O)[C@@H](NC(=O)c4ccccc4)c4ccccc4)C(C)=C1C3(C)C)[C@]1(OC(C)=O)CO[C@@H]1C[C@@H]2O [Paclitaxel, (2α,4α,5β,7β,10β,13α)-4,10-bis(acetyloxy)-13-{[(2R, 3S)-3-(benzoylamino)-2-hydroxy-3-phenylpropanoyl]oxy}-1,7-dihydroxy-9-oxo-5,20-epoxytax-11-en-2-yl benzoate, reference compound]
Fatal Tox [2]: 0/10 | T/C area [2]: 0.28^# | T/C area ([2]; listed as paclitaxel): 0.28 | relative T/Carea ([3]; 38 treatment days, Compound A1 single agent 2.5 mg/kg PO 2QD, paclitaxel 12 mg/kg IV QW, combination with Compound A1 2 mg/kg PO 2QD): 0.34 | anti-tumor efficacy (in words) ([3]; Compound A1 2.5 mg/kg single agent (38 days), paclitaxel 12 mg/kg and combination with Compound A1 2 mg/kg (treatment day 38 to 59)): clear tumor progression | tolerability (in words) ([3]; mouse, in vivo): well tolerated without critical body weight loss or toxicities | relative T/Carea ([4]; 40 treatment days, paclitaxel 24 mg/kg IV QW, combination with Compound A1 1 mg/kg PO 2QD 2 days on/5 days off): 0.05 | partial regression (% of tumors) [4, 13]: 20% | tumor growth delay (% of tumors) [4, 13]: 80% | anti-tumor efficacy (in words) ([4]; mouse, in vivo): overall disease stabilization | Fatal toxicity (number of animals) ([4]; paclitaxel group: Treatment Day 57, combination group: after the first treatment cycle): 1 | Fatal Tox [5]: 0/10 | T/C area [5]: 0.14^# | T/C area ([5]; listed as paclitaxel): 0.14 | MTD (maximum tolerated dose), single-agent ([6]; paclitaxel i.v. 1 day on/6 days off, as stated for the NCI-H1299 study): 20 mg/kg | relative T/Carea ([7]; 14 treatment days, Compound A1 1 mg/kg PO 2QD 2 days on/5 days off, paclitaxel 24 mg/kg IV QW): 0.09 | tolerability (in words) ([7]; mouse, in vivo): well tolerated without critical body weight loss or toxicities | histopathological phenotype of tumor tissue ([8]; paclitaxel 24 mg/kg IV QW single agent, 4 and 8 hours after treatment): induced atypical mitoses | histopathological phenotype of tumor tissue ([8]; paclitaxel 24 mg/kg IV QW single agent, 28, 32 and 48 hours after treatment): increased necrosis and apoptosis | mean tumor size [9]: 1494 mm^3 | tolerability (in words) [10]: overall well tolerated without critical body weight loss

CC(=O)O[C@@]12CO[C@@H]1C[C@H](O)[C@@]1(C)C(=O)[C@H](O)C3=C(C)[C@@H](OC(=O)[C@H](O)[C@@H](NC(=O)OC(C)(C)C)c4ccccc4)C[C@@](O)([C@@H](OC(=O)c4ccccc4)[C@H]21)C3(C)C [Docetaxel, 1,7β,10β-trihydroxy-9-oxo-5β,20-epoxytax-11-ene-2α,4,13α-triyl 4-acetate 2-benzoate 13-{(2R,3S)-3-[(tert-butoxycarbonyl)amino]-2-hydroxy-3-phenylpropanoate}, reference compound]
MTD ([6]; nude, mouse, in vivo, Compound A1 PO 2QD 2 days on/5 days off, paclitaxel IV QW, docetaxel i.v. 1 day on/6 days off, read-out: MTD (maximum tolerated dose), single-agent): 15 mg/kg | Fatal Tox [11]: 0/8 | Max. Body weight loss (%) [11]: −2% | T/C area [11]: 0.16^# | T/C area ([11]; listed as docetaxel): 0.16
